{"source": "patent US20230240290A1", "about": "“USE OF (Z)-3-HEXENYL ESTERS AND METHOD FOR PROTECTING PLANTS AGAINST PESTS” (UNIVERSITAT POLITÈCNICA DE VALÈNCIA, priority 2020, published 2023)", "key": {"[1]": {"experiment": "Emission kinetics of the dispenser (gravimetric method)", "format": "physicochemical", "settings": "4-mL LD polyethylene vial loaded with 4 ml, field conditions; slope of the fitted model", "protocol": "Two different types of polymeric emitters were used to test the activation level that different emission levels of (Z)-3-hexenyl propionate can provide: 4-mL low-density (LD) polyethylene vial and 4-mL high-density (HD) polyethylene vial. The highest emission level (5 mg/day) was achieved through previous laboratory studies with LD dispensers loaded with 20 mg of the pure substance. The lowest emission level (0.01 mg/day) was provided by HD vials loaded with a 1:100 mixture of (Z)-3-hexenyl propionate and paraffinic oil (0.02:2; g:g). The emission kinetics of the emitters used during the experiments was controlled by studying weight loss (gravimetric method). Additional dispensers were placed in the same environmental conditions, measuring their weight weekly with a precision scale (0.0001 g). The difference in weight recorded in each period will be the emitted quantity of the substance for each type of dispenser. To obtain the mean emission level of each dispenser, the recorded weights (y) are related to the aging time (x) using a multiple regression analysis.\nAs mentioned earlier, 2 zones were selected in each of the greenhouses in which, on 22 Feb. 2019, a dispenser (4-ml low-density (LD) polyethylene vial) loaded with 4 ml of (Z)-3-hexenyl was hung every 20 m^2 in one of them, and the other with the same surface area was used as a control treatment. […]"}, "Nesidiocoris tenuis": {"test_system": "Nesidiocoris tenuis", "settings": "in vivo", "protocol": "To know the behavior of the dispensers loaded with (Z)-3-hexenyl propionate under real cultivation conditions, four commercial greenhouses for tomato cv Raf located in Xilxes (Castellón province), with a history of problems with T. absoluta contamination at the end of winter, were selected. An experimental design of randomized blocks was carried out where each greenhouse was considered a block with two treatments per block and 4 repetitions per treatment. […]\nTwenty plants randomly chosen by repetition were sampled weekly for 11 weeks, beginning 30 Jan. […] First, the number of leaflets infested by T. absoluta per plant was counted. Then the number of N. tenuis (adults and nymphs) throughout the apical third of each plant (leaves, flowers and shoots) was counted. Following the methodology described above, 6 samples were taken from the apical part of each plant per repetition, and these samples were immediately introduced into liquid nitrogen to quantify the expression of the PR1 and PIN2 genes (described in Example 1 and Example 2). The expression of these genes was quantified one day before, 4, and 8 weeks after hanging the dispensers in the greenhouses."}, "[2]": {"test_system": "PR1 (marker gene for the salicylic acid signaling pathway)", "experiment": "Transcriptional response of defense gene PR1 in tomato plants exposed to volatiles (laboratory)", "format": "in vivo, Solanum lycopersicum cv. Moneymaker", "settings": "intact tomato plants exposed 24 h; filter paper, 1:10,000 ester:methanol; n=8", "protocol": "Moneymaker tomato plants were used. Two weeks after seed germination, the seedlings were individually transplanted into pots (8×8×8 cm). The plants were kept at 25±2° C., with a constant relative humidity of 65%±5% and a 14:10 h (light:dark) photoperiod. Tomato plants that had not received any pesticide treatment at four weeks of age (about 20 cm tall) were used. All volatiles used were obtained from Sigma-Aldrich (St. Louis, Mo., USA). Each volatile was exposed by using a 2×2 cm piece of filter paper on which 10 μl of a solution containing the corresponding volatile at a concentration of 1:10,000 [(Z)-3-hexenyl ester:methanol] was impregnated as an emitting source of the corresponding volatile (Pérez-Hedo, M. et al. Biocontrol, 63: 203-213 (2018)).\nTo activate a plant, two pieces of filter paper impregnated with the volatile were placed at the bottom of a 30×30×30 cm plastic cage (BugDorm-1 Insect Tents; MegaView Science Co., Ltd, Taichung, Taiwan) into which the plant was introduced. A control treatment was carried out in which the two pieces of filter paper were impregnated with 10 μl of methanol. Eight repetitions per treatment were performed. The plants of the treatments were kept exposed to the volatile without disturbing for 24 hours in separate and isolated climatic chambers to avoid any interference from the volatiles and were kept at 25±2° C., 65±10% RH, and a 14:10 h (L:D) photoperiod. […]\nThe methodology followed for extracting and quantifying gene expression was described by Pérez-Hedo et al. Journal of Pest Science 3: 543-554 (2015). The primers used were forward primer: 5′-[…]-3′ (SEQ ID NO: 1) and reverse primer: 5′-[…]-3′ (SEQ ID NO: 2) for the quantification of PR1, forward primer: 5′-[…]-3′ (SEQ ID NO: 3) and reverse primer: 5′-[…]-3′ (SEQ ID NO: 4) for SI-PI-I, and forward primer: 5′-[…]-3′ (SEQ ID NO: 5) and reverse primer: 5′-[…]-3′ (SEQ ID NO: 6) for the SI-PI-II gene. […]"}}}
{"smiles": "CC/C=C\\CCOC(=O)CC", "note": "[(Z)-3-hexenyl propanoate]", "values": [{"measurement": "Mean emission rate from the dispenser", "setting": "[1]", "value": 12.2, "unit": "mg/day"}, {"measurement": "Population of the plant bug N. tenuis, treatment vs control", "setting": "Nesidiocoris tenuis", "value": "remained the same"}, {"measurement": "Transcriptional response of PR1 compared to the control", "setting": "[2]", "value": "significantly overexpressed"}]}
